Activity data for eleven compounds are collected here from ChEMBL document CHEMBL1158498, “Synthesis of 4'-ester analogs of resveratrol and their evaluation in malignant melanoma and pancreatic cell lines” (Bioorg Med Chem Lett, 2010).

Active and inactive are the calls of the source. The rule behind the calls is not given here.

Data set [1] has as its system PANC-1. Briefly: Cytotoxicity against human PANC1 cells at 50 uM after 72 hrs by WST-1 assay in presence of gemcitabine. The format is functional, cell-based. (Tetrazolium dyes change colour on reduction, which living cells bring about.)
Another data set has as its system DM443. Nature of the data set: Cytotoxicity against human DM443 cells at 50 uM after 72 hrs by WST-1 assay. The format is functional, cell-based.
The subject of a further data set is DM738. Nature of the data set: Cytotoxicity against human DM738 cells at 50 uM after 72 hrs by WST-1 assay. The class given is functional, cell-based.
The subject of data set [2] is PANC-1. Nature of the data set: Cytotoxicity against human PANC1 cells at 50 uM after 72 hrs by WST-1 assay. The format is functional, cell-based.
A further data set has as its system NHDF. Nature of the data set: Cytotoxicity against human NHDF cells at 50 uM after 72 hrs by WST-1 assay. The format is cell-based.

As for `CCCC(=O)Oc1ccc(/C=C/c2cc(O)cc(O)c2)cc1`, in the data set with PANC-1 [1], the Activity result is “Not toxic”. The outcome in the data set on DM443 and in the data set on DM738 was Active.
Consider `CC(=O)Oc1cc(O)cc(/C=C/c2ccc(O)cc2)c1`, for which, in the data set on PANC-1 [1], the Activity entry is “Not toxic”.
With `Oc1ccc(/C=C/c2cc(O)cc(O)c2)cc1`, the Activity result with PANC-1 [1] was “Not toxic”.
Regarding `CCCCCCCCCCCCCCCC(=O)Oc1ccc(/C=C/c2cc(O)cc(O)c2)cc1`, the Activity entry in the data set with PANC-1 [1] was “Not toxic”.
Take `CCCCCC(=O)Oc1ccc(/C=C/c2cc(O)cc(O)c2)cc1`: in the data set on PANC-1 [1], the Activity result was “Not toxic”. Besides, the outcome in the data set with DM443 and with DM738 was Active.
Regarding `Oc1cc(F)cc(/C=C/c2ccc(F)cc2)c1`, in the data set on PANC-1 [1], the Activity entry is “Not toxic”. Besides, the result in the data set with DM443 and in the data set on DM738 was Active.
On to `CC(=O)Oc1ccc(/C=C/c2cc(O)cc(O)c2)cc1`, for which the result in the data set with PANC-1 [2] was Active. Also, the Activity result in the data set on NHDF was “Non-toxic”.
On to `CC(C)C(=O)Oc1ccc(/C=C/c2cc(O)cc(O)c2)cc1`, for which the Activity entry in the data set with PANC-1 [1] was “Not toxic”. Besides, the outcome in the data set on DM443 and in the data set on DM738 was Active.
In the case of `CC(=O)Oc1cc(/C=C/c2ccc(O)cc2)cc(OC(C)=O)c1`, the Activity entry in the data set on PANC-1 [1] was “Not toxic”.
As for `O=C(CCCCC(=O)Oc1ccc(/C=C/c2cc(O)cc(O)c2)cc1)Oc1ccc(/C=C/c2cc(O)cc(O)c2)cc1`, the values for the Activity result in the data set with PANC-1 [1] and in the data set with NHDF were “Not toxic” and “Non-toxic”, respectively.
Regarding `CC(=O)Oc1ccc(/C=C/c2cc(OC(C)=O)cc(OC(C)=O)c2)cc1`, in the data set on PANC-1 [1], the Activity result is “Not toxic”. Besides, the result in the data set on PANC-1 [2] was Active.
